Results as given in US20110059969A1, “PIPERAZINES AS ANTI-OBESITY AGENTS” (ASTRAZENECA AB, priority 2007, published 2011).

Tests used:
[1] = test system: JEG-3 cells; assay: [3H]-thymidine incorporation by JEG-3 cells (JEG-3 protocol); type: cell-based; settings: FIG. 5
Description: In JEG-3 cells (choriocarcinoma cell line) leptin is able to stimulate proliferation up to 3 fold (Biol. Reprod. (2007) 76: 203-10). […] The radioactivity incorporated by the cells is an index of their proliferative activity and is measured in counts per minute (CPM) with a liquid scintillation beta counter.
This finding can be applied to test whether a compound is able to either reproduce the effect of leptin on cell proliferation (leptin receptor agonist mimetic) (i.e., a given compound will cause an increase in incorporated [^3H]-Thymidine by the cells) or to inhibit the effect of leptin (antagonistic effect) by preventing the leptin-mediated increase in [^3H]-thymidine incorporation.
This approach has the advantage of using a non-recombinant system and has reasonable reproducibility and robustness.

[2] = test system: JEG-3 cells; settings: Biol. Reprod. (2007) 76: 203-10; cited from earlier work

EC50 ([1]; JEG-3 cells (choriocarcinoma cell line), read-out: EC50 of concentration-dependent increase in [3H]-thymidine incorporation): 2.1 nM
Substance: Leptin: hormone synthesized in fat cells that is believed to act in the hypothalamus to reduce food intake and body weight
concentration giving maximal effect on [3H]-thymidine incorporation ([1]; JEG-3 cells): 100 nM
stimulation of proliferation [2]: up to 3 fold
